Test results reported in the supplement of paper PMC11451515.

Legend:
Details in all cases: 48 h
NOMO1 [1] = assay: cell viability relative to DMSO control; higher = less cytotoxic
Procedure, shortened: (§1)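 Leukemia cells (NOMO1 or SEM, 500 cells/well; P12-Ichikawa, 1000 cells/well) were seeded in 5 μl in 1536-well plates after at least four passages of adaptation to each medium. They received library compounds in DMSO by pin dosing, 11 threefold points from 47 μM to 0.79 nM. Luminescence with CellTiter-Glo One was read after 48 h at 37°C. Viability is stated per plate relative to DMSO wells, with cell-free wells as background.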

SEM cells [2] = assay: as above
Procedure, shortened: as §1

P12-Ichikawa [3] = assay: as above
Procedure, shortened: as §1

NOMO1 [4] = assay: AUC of viability dose-response curve (% viability x log10 dose units); higher = less sensitive
Procedure, shortened: (§2)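 Leukemia cells adapted to each medium (500 or 1000 cells/well, 1536-well plates) were exposed to library compounds in DMSO for 48 h at 37°C at 11 threefold doses, 47 μM to 0.79 nM. Luminescence by CellTiter-Glo One was normalised per plate to DMSO and cell-free wells, then fitted with a four-parameter log-logistic curve on log10 dose. Curves above full viability were scaled and quality-control failures removed before area under the curve was integrated by trapezoidal rule.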

SEM cells [5] = assay: as above
Procedure, shortened: as §2

P12-Ichikawa [6] = assay: as above
Procedure, shortened: as §2

CC(NC1=CC=CC=C1)C\2=C\C(=C/N3C(=O)\C=C(/N=C23)N4CCOCC4)C (stereo unspecified)
cell viability [%]
Details | NOMO1 [1] | P12-Ichikawa [3] | SEM cells [2]
HPLM + 10% dialyzed FBS, 0.000781 µM | 91.6 | 101 | 96.9
HPLM + 10% dialyzed FBS, 0.00234 µM | 106 | 100 | 86.4
HPLM + 10% dialyzed FBS, 0.00702 µM | 115 | 107 | 108
HPLM + 10% dialyzed FBS, 0.0211 µM | 105 | 110 | 99.1
HPLM + 10% dialyzed FBS, 0.0632 µM | 114 | 109 | 101
HPLM + 10% dialyzed FBS, 0.19 µM | 117 | 110 | 108
HPLM + 10% dialyzed FBS, 0.569 µM | 125 | 115 | 107
HPLM + 10% dialyzed FBS, 1.71 µM | 118 | 115 | 108
HPLM + 10% dialyzed FBS, 5.12 µM | 108 | 110 | 103
HPLM + 10% dialyzed FBS, 15.4 µM | 99.6 | 106 | 97.3
HPLM + 10% dialyzed FBS, 46.1 µM | 87.6 | 101 | 86.5
RPMI 5 mM glucose + 10% FBS, 0.000781 µM | 92.7 | 95.9 | 99.1
RPMI 5 mM glucose + 10% FBS, 0.00234 µM | 96.3 | 98 | 101
RPMI 5 mM glucose + 10% FBS, 0.00702 µM | 97.7 | 97.4 | 117
RPMI 5 mM glucose + 10% FBS, 0.0211 µM | 109 | 98.1 | 126
RPMI 5 mM glucose + 10% FBS, 0.0632 µM | 109 | 102 | 103
RPMI 5 mM glucose + 10% FBS, 0.19 µM | 102 | 110 | 101
RPMI 5 mM glucose + 10% FBS, 0.569 µM | 115 | 115 | 128
RPMI 5 mM glucose + 10% FBS, 1.71 µM | 99.8 | 113 | 119
RPMI 5 mM glucose + 10% FBS, 5.12 µM | 108 | 101 | 117
RPMI 5 mM glucose + 10% FBS, 15.4 µM | 105 | 112 | 101
RPMI 5 mM glucose + 10% FBS, 46.1 µM | 108 | 102 | 12.2
RPMI 5 mM glucose + 10% dialyzed FBS, 0.000781 µM | 95.7 | 88.6 | 95.3
RPMI 5 mM glucose + 10% dialyzed FBS, 0.00234 µM | 92.9 | 93.6 | 79.7
RPMI 5 mM glucose + 10% dialyzed FBS, 0.00702 µM | 111 | 114 | 113
RPMI 5 mM glucose + 10% dialyzed FBS, 0.0211 µM | 110 | 110 | 106
RPMI 5 mM glucose + 10% dialyzed FBS, 0.0632 µM | 105 | 99.1 | 94.3
RPMI 5 mM glucose + 10% dialyzed FBS, 0.19 µM | 116 | 115 | 73.8
RPMI 5 mM glucose + 10% dialyzed FBS, 0.569 µM | 109 | 110 | 101
RPMI 5 mM glucose + 10% dialyzed FBS, 1.71 µM | 108 | 116 | 110
RPMI 5 mM glucose + 10% dialyzed FBS, 5.12 µM | 94.7 | 105 | 98.3
RPMI 5 mM glucose + 10% dialyzed FBS, 15.4 µM | 96.7 | 106 | 87.3
RPMI 5 mM glucose + 10% dialyzed FBS, 46.1 µM | 83 | 111 | 53.8

AUC of viability dose-response curve
Details | NOMO1 [4] | P12-Ichikawa [6] | SEM cells [5]
HPLM + 10% dialyzed FBS | 466 | 470 | 475
RPMI 5 mM glucose + 10% FBS | 451 | 456 | 451
RPMI 5 mM glucose + 10% dialyzed FBS | 462 | 466 | 447

COc1ccc(-c2cc3nccn3c(Nc3ncccc3C(N)=O)n2)cc1OC
cell viability [%]
Details | NOMO1 [1] | P12-Ichikawa [3] | SEM cells [2]
HPLM + 10% dialyzed FBS, 0.000781 µM | 125 | 103 | 81.8
HPLM + 10% dialyzed FBS, 0.00234 µM | 111 | 112 | 92.1
HPLM + 10% dialyzed FBS, 0.00702 µM | 107 | 110 | 90.4
HPLM + 10% dialyzed FBS, 0.0211 µM | 117 | 112 | 86.8
HPLM + 10% dialyzed FBS, 0.0632 µM | 124 | 113 | 85.7
HPLM + 10% dialyzed FBS, 0.19 µM | 111 | 119 | 91.4
HPLM + 10% dialyzed FBS, 0.569 µM | 110 | 117 | 85.3
HPLM + 10% dialyzed FBS, 1.71 µM | 96.6 | 115 | 61.6
HPLM + 10% dialyzed FBS, 5.12 µM | 109 | 116 | 74.4
HPLM + 10% dialyzed FBS, 15.4 µM | 89 | 114 | 65.9
HPLM + 10% dialyzed FBS, 46.1 µM | 93 | 109 | 58.8
RPMI 5 mM glucose + 10% FBS, 0.000781 µM | 90 | 97.4 | 82.7
RPMI 5 mM glucose + 10% FBS, 0.00234 µM | 95.3 | 109 | 105
RPMI 5 mM glucose + 10% FBS, 0.00702 µM | 118 | 105 | 103
RPMI 5 mM glucose + 10% FBS, 0.0211 µM | 107 | 111 | 100
RPMI 5 mM glucose + 10% FBS, 0.0632 µM | 99.7 | 111 | 99
RPMI 5 mM glucose + 10% FBS, 0.19 µM | 111 | 109 | 87.2
RPMI 5 mM glucose + 10% FBS, 0.569 µM | 95 | 97.4 | 89.2
RPMI 5 mM glucose + 10% FBS, 1.71 µM | 103 | 104 | 63.1
RPMI 5 mM glucose + 10% FBS, 5.12 µM | 102 | 114 | 81
RPMI 5 mM glucose + 10% FBS, 15.4 µM | 92.7 | 107 | 60.7
RPMI 5 mM glucose + 10% FBS, 46.1 µM | 103 | 96.5 | 58.1
RPMI 5 mM glucose + 10% dialyzed FBS, 0.000781 µM | 106 | 99 | 85.7
RPMI 5 mM glucose + 10% dialyzed FBS, 0.00234 µM | 106 | 111 | 91.6
RPMI 5 mM glucose + 10% dialyzed FBS, 0.00702 µM | 113 | 111 | 86.6
RPMI 5 mM glucose + 10% dialyzed FBS, 0.0211 µM | 95.2 | 105 | 101
RPMI 5 mM glucose + 10% dialyzed FBS, 0.0632 µM | 116 | 110 | 91
RPMI 5 mM glucose + 10% dialyzed FBS, 0.19 µM | 107 | 115 | 76.2
RPMI 5 mM glucose + 10% dialyzed FBS, 0.569 µM | 106 | 116 | 68.5
RPMI 5 mM glucose + 10% dialyzed FBS, 1.71 µM | 105 | 90.9 | 49.9
RPMI 5 mM glucose + 10% dialyzed FBS, 5.12 µM | 107 | 114 | 59.3
RPMI 5 mM glucose + 10% dialyzed FBS, 15.4 µM | 109 | 101 | 49.1
RPMI 5 mM glucose + 10% dialyzed FBS, 46.1 µM | 101 | 102 | 49.5

AUC of viability dose-response curve
Details | NOMO1 [4] | P12-Ichikawa [6] | SEM cells [5]
HPLM + 10% dialyzed FBS | 444 | 471 | 380
RPMI 5 mM glucose + 10% FBS | 476 | 475 | 405
RPMI 5 mM glucose + 10% dialyzed FBS | 473 | 471 | 352
